pIC50: −log10 of the molar value.
Columns and labels:
[1] = test system: human SHSY5Y neuroblastoma cells; experiment: Cell viability by MTT and LDH assays; settings: 5 hours, up to 1 mM concentration
Experimental: Human SHSY-5Y neuroblastoma cells were cultured in Dulbecco's Modified Eagle's Medium (DMEM) (ThermoFisher Scientific; Waltham, MA) with 10% Fetal Bovine Serum (FBS) (ThermoFisher) and 1% Penicillin-Streptomycin (PenStrep, ThermoFisher) and incubated at 37° C. under atmospheric oxygen concentrations (21%) with 5% CO2. SHSY-5Y cells were cultured in DMEM with Ham's F12 (1:1) (ThermoFisher) with 20% FBS, 1% PenStrep. Cells were plated at a density tailored to reach 70-80% confluence at the beginning of every experiment. SH-SY5Y cells were transiently transfected for 24 hours with human wild-type α-synuclein using Fugene HD transfection reagent (Promega; Madison, WI) before fresh culture media and drug were added.
Cell viability was determined via lactate dehydrogenase assay on culture media, (ThermoFisher) and MTT assay on plated cells (ThermoFisher).

human USP13 = molecular target: T1, human USP13 (Homo sapiens, UniProt Q92995); experiment: USP13 activity via ELISA in SHSY5Y cells; assay type: cell-based; settings: for pIC50: SHSY5Y cell line, estimated with GraphPad Prism, read-out: IC50 to inhibit USP13 activity; for USP13 activity via ELISA: SHSY5Y cells, 5 hours, concentration range of 1 nM-1 mM
T1 construct: USP13 activity via ELISA in human SHSY5Y neuroblastoma cells; endogenous in cells; host or cells: human SH-SY5Y neuroblastoma cells (transiently transfected with human wild-type alpha-synuclein, not with USP13)
T1 sequence (Q92995 1-863): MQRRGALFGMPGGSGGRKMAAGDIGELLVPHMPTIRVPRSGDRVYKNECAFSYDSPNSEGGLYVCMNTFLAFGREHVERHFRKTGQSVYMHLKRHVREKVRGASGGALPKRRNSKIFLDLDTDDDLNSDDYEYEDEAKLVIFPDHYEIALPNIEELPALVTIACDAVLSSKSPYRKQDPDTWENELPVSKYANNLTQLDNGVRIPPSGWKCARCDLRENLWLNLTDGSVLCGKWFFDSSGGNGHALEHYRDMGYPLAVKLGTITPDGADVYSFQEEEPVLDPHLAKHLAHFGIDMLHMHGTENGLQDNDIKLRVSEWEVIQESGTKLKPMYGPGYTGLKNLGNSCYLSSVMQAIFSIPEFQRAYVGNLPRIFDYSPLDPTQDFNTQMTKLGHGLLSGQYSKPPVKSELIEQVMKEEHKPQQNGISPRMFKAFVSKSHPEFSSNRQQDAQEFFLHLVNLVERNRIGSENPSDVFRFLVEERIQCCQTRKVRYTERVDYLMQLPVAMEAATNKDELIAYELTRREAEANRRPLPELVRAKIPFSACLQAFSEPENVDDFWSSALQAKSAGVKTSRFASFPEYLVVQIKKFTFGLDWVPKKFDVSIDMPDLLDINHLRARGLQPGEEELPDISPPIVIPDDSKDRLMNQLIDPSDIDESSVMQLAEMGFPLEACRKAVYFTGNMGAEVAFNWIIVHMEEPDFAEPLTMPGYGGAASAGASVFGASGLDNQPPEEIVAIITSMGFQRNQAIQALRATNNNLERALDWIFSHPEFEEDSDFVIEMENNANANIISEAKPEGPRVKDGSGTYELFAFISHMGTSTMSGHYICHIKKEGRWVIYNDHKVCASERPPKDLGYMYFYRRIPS
Experimental: (§1) Cell lines, transfection, and treatment.
(§2) A total of 25 μL soluble protein was incubated overnight at 4° C. with 25 μL of a mixed bead solution. After washing, samples were incubated with 25 μL detection antibody solution for 1.5 hours at room temperature. Streptavidin-phycoerythrin (25 μL) was added to each well containing the 25 μL of detection antibody solution. Samples were then washed and suspended in 100 μL of sheath fluid. Samples were then run on MAGPIX with Xponent software. The median fluorescent intensity (MFI) data were analyzed using a 5-parameter logistic or spline curve-fitting method for calculating analyte concentrations in samples. Specific alpha-synuclein ELISAs were performed on tissue soluble extracts from midbrain lysates in 1XSTEN buffer. The ELISA for USP13 (MyBioSource, Cat # MBS9335287), Human alpha-synuclein (Biolegend, Cat #844101) and specific p-Tau ser396 (Invitrogen, KHB7031) were performed on cell or brain tissue extracts as described above according to manufacturers' protocol.
Statistical and Data Analysis. All statistical analyses were performed using GraphPad Prism version 5.0 (GraphPad software, Inc, San Diego, CA, USA). Two-tailed student's t-test was used in comparison of means of two groups. Ordinary one-way analysis of variance (ANOVA) followed by Newman-Keuls or Dunnett comparison post hoc tests were used in comparison of means of multiple groups. Asterisks denote actual p-value significances (*<0.05, **<0.01, ***<0.001 and ****<0.0001), and N is the number of animals or the number of independent experiments (cell culture) per group. Unless otherwise indicated, data are expressed as Mean±SD. IC50 to USP13 levels was also estimated using GraphPad Prism version 5.0 (GraphPad software, Inc, San Diego, CA, USA).

human alpha-synuclein = experiment: Alpha-synuclein levels via ELISA in alpha-synuclein-transfected SHSY5Y cells; assay type: cell-based; settings: 5 hours, concentration between 1 and 0.1 nM
Experimental: as §1
Alpha-Synuclein Enzyme-Linked Immunosorbent Assay (ELISA). ELISAs for total human alpha-synuclein (Millipore; Burlington, MA) were conducted using Milliplexed ELISA. Briefly, Xmap technology uses magnetic microspheres that are internally coded with two fluorescent dyes. Through precise combinations of these two dyes, multiple proteins are simultaneously measured within a sample. Each of these spheres is coated with a specific capture antibody. The capture antibody binds to the detection antibody and a reporter molecule, completing the reaction on the surface of the bead.
as §2

Fc1ccc2nccc(NCc3ccccc3)c2c1 [CL3-499, N-Benzyl-6-fluoroquinolin-4-amine]
cell death in two viability assays (MTT and LDH) [1]: do not cause cell death | pIC50 (human USP13): 5.92 | USP13 activity via ELISA (human USP13): significantly reduce the activity of human USP13 | level of alpha-synuclein via ELISA (human alpha-synuclein): significantly reduce the level of alpha-synuclein

Fc1ccc(CNc2ncnc3ccc(F)cc23)cc1 [Spautin-1, reference compound]
pIC50 (human USP13): 6.15 to 6.22

c1ccc(Nc2ccnc3ccsc23)cc1 [BK50118-A, N-Phenylthieno[3,2-b]pyridin-7-amine]
cell death in two viability assays (MTT and LDH) [1]: do not cause cell death | pIC50 (human USP13): 7.59 | USP13 activity via ELISA (human USP13): significantly reduce the activity of human USP13 | level of alpha-synuclein via ELISA (human alpha-synuclein): significantly reduce the level of alpha-synuclein

Fc1ccc2nccc(Nc3ccccc3)c2c1 [BK50118-B, 6-Fluoro-N-phenylquinolin-4-amine]
cell death in two viability assays (MTT and LDH) [1]: do not cause cell death | pIC50 (human USP13): 7.43 | USP13 activity via ELISA (human USP13): significantly reduce the activity of human USP13 | level of alpha-synuclein via ELISA (human alpha-synuclein): significantly reduce the level of alpha-synuclein

COC(=O)[C@H](Cc1ccccc1)Nc1c([N+](=O)[O-])c(=O)oc2ccccc12 [CL3-512, (S)-Methyl (3-nitro-2-oxo-2H-chromen-4-yl)-phenylalaninate]
cell death in two viability assays (MTT and LDH) [1]: do not cause cell death | pIC50 (human USP13): 5.97 | USP13 activity via ELISA (human USP13): significantly reduce the activity of human USP13 | level of alpha-synuclein via ELISA (human alpha-synuclein): significantly reduce the level of alpha-synuclein

COC(=O)[C@H](Cc1ccc(O)cc1)Nc1c([N+](=O)[O-])c(=O)oc2ccccc12 [CL3-514, (S)-Methyl (3-nitro-2-oxo-2H-chromen-4-yl)-tyrosinate]
cell death in two viability assays (MTT and LDH) [1]: do not cause cell death | pIC50 (human USP13): 7.16 | USP13 activity via ELISA (human USP13): significantly reduce the activity of human USP13 | level of alpha-synuclein via ELISA (human alpha-synuclein): significantly reduce the level of alpha-synuclein

From patent US20240092800A1, “USP13 INHIBITORS AND METHODS OF USE THEREOF” (GEORGETOWN UNIVERSITY, priority 2021, published 2024)
